Values of other authors as cited in PMC11235333, “Glucagon-like peptide-1 stimulates acute secretion of pro-atrial natriuretic peptide from the isolated, perfused pig lung exposed to warm ischemia” (Frontiers in Transplantation, 2022).

Test system: lipopolyssacharide induced endotoxemia in rats
Conditions: lipopolysaccharide induced endotoxemia, after 3 h, ref Yanay et al.
Procedure: In studies with 24 h EVLP and transplantation of donor lungs, a rise of IL-8 concentration, proportional to the duration of warm ischaemia, was observed ([78], [79]). In the majority of studies investigating the anti-inflammatory effects of GPL-1 in the lungs, treatment was given more than 6 ...

Substance: exendin-4
- Inflammatory cytokines: decreased IL-1α, IL-1β, IL-6, TNFα and IFNγ but not IL-10
